Assay results from patent publication US12729368B2, “Methods and compositions for generating oligodendrocyte progenitor cells” (Trailhead Biosystems Inc., priority 2022, dated 2026).
Where “and” joins values, the source holds several entries; their conditions need not be identical. Identical values can stand only once.

What was measured:
[1] = system: OPCs; assay: HD-DoE 12-factor model for stage 4 on OPCs, 6 days in culture; assay type: cell-based, human
Experimental: To engineer the recipe of stage 4 of differentiation, 48 or 96 different combinations of effectors generated using Design-of-Experiments compression through D-optimality were robotically prepared. The effector combinations were prepared in a basal media and were subsequently added to the cells, which were treated with the stage 1, stage 2 and stage 3 differentiation media as described in the earlier examples to generate OPCs. […] Solutions within the tested space could then be explored to address desirability. […] Benarroch (2009) Neurology 72:1779-1785; Shi et al. (2019) Exp Ther Med, 18:1258-1266).

[2] = system: stage 2 early-OPCs; assay: HD-DoE 12-factor model for stage 3 (version 1) on stage 2 early-OPCs; assay type: cell-based, human; conditions: for factor contribution: positive
Experimental: In another model, the effects of Activin A and TTNPB along with LDN193189, MHY1485, PDGF-AA, AICAR, FGF2, CHIR99021, DBZ, MK2206, Purmorphamine and T3+T4 were tested on gene profile of differentiating cells. When this model was optimized for maximum expression of SOX10 at 54.7, we observed Activin A again had positive regulatory impact on its expression, with factor contribution of 4.7. Other positive factors included MK2206, with the highest factor contribution at 16.2, MHY1485 at 11.49, CHIR99021 at 9.6, DBZ at 9.3, FGF2 at 3.6 and PDGF-AA, with factor contribution less than 3 (FIG. 20).
In this model, we also investigated the conditions of expression of another important OPC gene, CSPG4 (Goldman and Kuypers (2015) Development 142:3983-95: van Tilborg et al. (2018) Glia 66:221-238).
Dynamic profile analysis was used to better assess the impact of the factors on our selected genes and find the combination set that can optimize their expression (FIG. 22). According to this analysis, even though Activin A has a positive effect on SOX10, it decreases level of PDGFRa and OLIG1. […] Moreover, SOX10 is one of the main transcription factors of oligodendrocytes, along with OLIG2 and NKX2-2, that has shown the potential to commit the stem cells to oligodendrocytes in reprogramming efforts (Wang et al. (2014) Proc Natl Acad Sci USA 111:E2885-94; Garciá-León et al. (2018) Stem Cell Reports 10:655-672). […] One of the main challenges of differentiating cells to oligodendrocyte fate is controlling the mixed population and increasing the purity of the culture by committing more cells to oligodendrocyte over neuronal identity. Therefore, DBZ was excluded from the final recipe.
At this point, we investigated the expression profile of a larger group of genes defining oligodendrocyte progenitor population at a later stage, including ID2, CNP and BCAN (Perlman et al. (2020). Glia 68:1291-1303; Goldman and Kuypers (2015) Development 142:3983-95). In this model, these genes were expressed at 1900, 660 and 44, respectively.

[3] = system: human pluripotent stem cells; assay: HD-DoE #2: 13-factor model, differentiation toward anterior neuroectoderm, gene expression; assay type: cell-based
Text: To further enhance the conditions for oligodendrocyte differentiation from pluripotency, we performed an additional HD-DoE experiment. We obtained additional gene regulatory models that were used for preparation of a differentiation protocol. The basis of this was a 13-factor HD-DoE experiment with focus on initiation of differentiation of cells toward anterior neuroectoderm. In this model, we focused on expression of FEZF2 and OTX2.
As shown in the results summarized in FIG. 4, the model was optimized for highest expression of OTX2 at 12755.9. According to the model of high expression of OTX2, seven effectors had positive contribution including MK2206, PD0325901, CHIR99021, LDN193189, Go6983, PD173074 and BLU9931 with highest factor contribution of 22.2 for MK2206 and lowest factor contribution of 1.7 for PD173074 and BLU9931.
As shown in the results summarized in FIG. 5, the model was optimized for highest expression of FEZF2 at 4466. When the model was optimized for maximum expression level of FEZF2, three effectors including LDN193189 with factor contribution of 19.5, PD0325901 with factor contribution of 14.6 and MK2206 with factor contribution of 12.3 were common with previous condition and three new effectors including purmorphamine-500 nM, XAV939 and SC79 were introduced.
As shown in the results summarized in FIG. 6, to fine-tune the recipe and find the optimum combination of factors for high expression of both OTX2 and FEZF2, dynamic profiling analysis was done. […] Therefore, these two factors were added to the optimized culture recipe.

[4] = system: pre-OPCs; assay: HD-DoE 12-factor model for stage 2 (version 1), 3 days on stage 1 pre-OPCs; assay type: cell-based, human; conditions: for factor contribution: optimized for maximum expression of OLIG2 at 1841.6
Text: To engineer the recipe of stage 2 of differentiation, cells were first cultured in the stage 1 media described in Example 1 and then treated with combinations of 8 or 12 factors for 3 days and the gene expression of cells in each condition was modeled. At this point, due to short duration of culture (only six days in vitro), we decided to focus on maximal expression of OLIG2 and maintenance of high expression of NKX2-2, while initiating expression of SOX10, OLIG1 and PDGFRa, to guide the cells towards oligodendrocyte fate (Emery and Lu (2015). Cold Spring Harb Perspect Biol. 7:a020461; Perlman et al. (2020). Glia 68:1291-1303; Goldman and. Kuypers (2015) Development 142:3983-95).
In one 12-factor model, the individual and combinatorial impact of SUN 11602 an agonist for FGF signaling pathway, FGF2, Activin A an activator of one of the receptors of TGF-b superfamily, A 8301, an inhibitor of TGF-b pathway, CHIR99021 a WNT activator, AGN193109 a RA antagonist, MK2206 an AKT inhibitor, Purmorphamine an agonist of SHH signaling pathway, AZD3147 an antagonist of mTOR pathway, MHY1485 an agonist of mTOR pathway, SC79 an agonist of AKT pathway and G06983 an inhibitor of PKC pathway, were tested.
Dynamic profile analysis was used to assess the expression levels of other genes of interests, such as NKX2-2, OLIG1 and SOX10, while the model is maximized for OLIG2. Activin A and SUN 11602 were brought down to zero due to their very low factor contribution. We observed when the model is optimized, the expression level of NKX2-2 is at 3000, PDGFRa at 1000, OLIG1 at 80 and SOX10 at 15 (FIG. 12).

[5] = system: pre-OPCs; assay: HD-DoE 8-factor model for stage 2 (version 2) on pre-OPCs; assay type: cell-based, human; conditions: for factor contribution: positive
Experimental: To engineer the recipe of stage 2 of differentiation, cells were first cultured in the stage 1 media described in Example 1, then, 48 or 96 different combinations of effectors generated using Design-of-Experiments compression through D-optimality were robotically prepared. The effector combinations were prepared in a basal media and were subsequently added to the cells, which were then allowed to differentiate. Three days later RNA extraction was performed, and gene expression was obtained using quantitative PCR analysis. The data was normalized and modeled using partial least squares regression analysis to the effector design, resulting in the generation of gene-specific models, which after model tuning for maximal predictive power, provided explanation of the effectors ability to control the expression of individual genes, combinatorically, and individually. Solutions within the tested space could then be explored to address desirability.
At this point, due to short duration of culture (only six days in vitro) we decided to focus on maximal expression of OLIG2 and maintenance of high expression of NKX2-2, while initiating expression of SOX10, OLIG1 and PDGFRa, to guide the cells towards oligodendrocyte fate (Emery and Lu (2015). Cold Spring Harb Perspect Biol. 7:a020461; Perlman et al. (2020). Glia 68:1291-1303; Goldman and Kuypers (2015) Development 142:3983-95). In one 8-factor model, the individual and combinatorial impact of CHIR99021 (a WNT pathway agonist), AGN193109 (an RA pathway antagonist), FGF-2 (an FGFR agonist), Purmorphamine (an SHH pathway agonist), AICAR (an AMPK agonist), GW3965 (an LXR pathway agonist), GW590735 (a PPAR-a agonist) and AZD3147 (a mTOR antagonist) on further differentiation of cells were tested.

[6] = system: cells cultured in stage 1 and stage 2 differentiation media; assay: HD-DoE 8-factor model for stage 3 (version 2); assay type: cell-based, human; conditions: positive
Experimental: To further differentiate the cells to an oligodendrocyte progenitor identity, additional HD-DoE experiments were performed on the cells that were cultured in stage 1 and stage 2 differentiation media. After 3 days, gene expression of cells in different combinatorial conditions were investigated. At this time, we focused on maximal expression of signature oligodendrocyte progenitor genes such as SOX10, OLIG1 and PDGFRa (Goldman and Kuypers (2015) Development 142:3983-95: Marques et al. (2016) Science 352:1326-1329). In one 8-factor model, individual and combinatorial effects of TTNPB (an RA agonist), CHIR99021, FGF-2, IGF-1, AGN193109, Purmorphamine, MHY1485 (a mTOR pathway agonist) and SC79 (an AKT pathway agonist) were tested to guide the cells toward a SOX10/PDGFRa positive population. […] CHIR99021 was also positive, with a factor contribution of 8.1 (FIG. 33).
Other positive factors were IGF-1, with a factor contribution of 11.2, CHIR99021, with a factor contribution of 8.5 and TTNPB, with a factor contribution below 1 (FIG. 34).
To confirm the impact of TTNPB, FGF-2 and IGF-1 on a bigger scale, we investigated the expression profile of a larger group of genes defining late oligodendrocyte progenitor population, such as ID2, CSPG4, FYN, SOX8, PLP1 and BCAN (Perlman et al. (2020). Glia 68:1291-1303; Goldman and Kuypers (2015) Development 142:3983-95; van Tilborg et al. (2018) Glia 66:221-238) and neuronal genes such as NEUROD1, NEUROG1 and NEUROG2 in presence of IGF-1, FGF-2 or TTNPB.

[7] = optimized for maximum expression of CSPG4 at 38.6
[8] = optimized for maximum expression of SOX10 at 54.7
[9] = model optimized for highest expression of OTX2 at 12755.9, positive contribution
[10] = optimized for maximum expression of OLIG1 at 454.7
[11] = optimized for maximum expression of OLIG2 at 3325
[12] = dynamic profile, model maximized for OLIG2
[13] = dynamic profiling analysis, 13-factor model

C[C@H](NC(=O)Cc1cc(F)cc(F)c1)C(=O)N[C@@H]1C(=O)N(C)c2ccccc2-c2ccccc21 [GSI-XX]
effect on expression of neuronal genes NeuroG1, NeuroG2 and NeuroD1 ([1]; dynamic profile analysis): positively regulates | factor contribution ([1]; optimized for CNP at 1790, positive): 7

PDGF-AA: PDGFR pathway agonist
factor contribution [2, 7]: 2.9 | factor contribution [2, 8]: less than 3

NC1(c2ccc(-c3nc4ccn5c(=O)[nH]nc5c4cc3-c3ccccc3)cc2)CCC1 [MK2206]
factor contribution ([3]; model optimized for highest expression of FEZF2 at 4466, positive): 12.3 | factor contribution [3, 9]: 22.2 | factor contribution ([4]; positive regulatory effect): 5.3 | factor contribution [2, 7]: 5.2 | factor contribution [2, 8]: 16.2

Cc1c[nH]c(-c2cnc(NCCNc3ccc(C#N)cn3)nc2-c2ccc(Cl)cc2Cl)n1 [CHIR99021]
factor contribution [2, 8]: 9.6 | factor contribution [5, 10]: 22.8 | factor contribution [5, 11]: 17.96 | factor contribution ([6]; optimized for SOX10 at 41.04): 8.1 | factor contribution ([6]; optimized for maximum expression of PDGFRa at 853.4): 8.5

Cc1nc(-c2ccc(C(F)(F)F)cc2)sc1C(=O)NCc1ccc(OC(C)(C)C(=O)O)cc1 [GW590735]
impact on SOX10 and NKX2-2 expression [5, 12]: negative impact | factor contribution [5, 10]: 3.1 | factor contribution [5, 11]: 5.4

C[C@H](NC(=O)Cc1cc(F)cc(F)c1)C(=O)N[C@@H]1C(=O)N(C)c2ccccc2-c2ccccc21 [DBZ]
effect on neuronal genes ([2]; dynamic profile / factor effect plots): increases neuronal genes | factor contribution [2, 8]: 9.3

CCN(CC)CCCCNc1ncc2cc(-c3cc(OC)cc(OC)c3)c(NC(=O)NC(C)(C)C)nc2n1 [PD173074]
factor contribution [3, 9]: 1.7

C=CC(=O)Nc1cccc(C)c1Nc1ncc2cc(-c3c(Cl)c(OC)cc(OC)c3Cl)ccc2n1 [BLU9931]
factor contribution [3, 9]: 1.7

NC(=O)c1ncn([C@@H]2O[C@H](CO)[C@@H](O)[C@H]2O)c1N [AICAR]
effect on late OPC genes ID2, CNP and BCAN ([2]; factor effect plots): positively regulates | factor contribution ([1]; optimized for PLP1 at 3600, negative impact): 12 and 11.8

COc1ccc2c(c1)c(C1=C(c3c[nH]c4ccccc34)C(=O)NC1=O)cn2CCCN(C)C [Go6983]
effect on expression of SOX10 [4, 12]: positively regulate | impact on PDGFRA [4, 12]: significant negative impact | factor contribution ([4]; negative impact): 10.2 and 10.22

Oc1nc(-c2ccc(C(F)(F)F)cc2)nc2c1CSCC2 [XAV939]
effect on expression of FEZF2 [3, 13]: significant positive effects | impact on expression level of OTX2 [3, 13]: no negative impact

C[C@H]1COCCN1c1cc(C2(S(=O)(=O)C3CC3)CC2)nc(-c2ccc(NC(=S)NCCO)cc2)n1 [AZD3147]
factor contribution ([4]; positive regulatory effect): 5.2 | factor contribution [5, 10]: 26.7 and 26.76 | factor contribution [5, 11]: 30.2
